System: SW620 cells
Assay: Cell proliferation / cytotoxicity assay (CellTiter-Glo) in SW620 cells
Type: cell-based
Conditions: SW620 cells (ATCC CCL-227), 72 hours, CellTiter-Glo 2.0 luminescence
Method: Compounds are assayed for inhibition of cell proliferation and killing cancer cells. Cytotoxicity assays are conducted according to the following general procedure. SW620 cells (ATCC CCL-227) are maintained in DMEM Low Glucose (Corning 10-014-CV) media supplemented with 10% fetal bovine serum and 1% PenStrep and grown at 37° C. in 5% CO2. Cells are plated into 96 well flat bottom plates (2 million/plate, ˜20,000/well, 200 μL media/well). The cells are allowed to settle and adhere to the plate bottom overnight. Compounds are diluted in media from a 10 mM stock solution starting at 50 μM, using 2-fold dilutions, in a column in a 96-well plate. Media is removed from the plate containing cells and replaced with media containing diluted compounds, Plates are incubated 72 hours at 37° C. in 5% CO2. Plates are allowed to come to room temperature and 100 μL CellTiter-Glo 2.0 reagent (Promega, G924C) is added at room temperature. Plates are shaken for 2 minutes, then allowed to stand for 15 minutes. Luminescence is read with FLx800 (BioTek Instruments). Data is plotted with GraphPad Prizm 8.0.

Compound | IC50 (Homo sapiens, SW-620) | also measured
Cc1nc(N[C@@H]2CC[C@H](NC(=O)OC(C)(C)C)C2)nc2ccc(-c3cccc4c3OCCO4)cc12 [Compound 1] | 5 to 10 µM | –
Cc1nc(N[C@@H]2CC[C@H](NC(=O)c3ccc(Cl)cc3)C2)nc2ccc(-c3cccc4c3OCCO4)cc12 [Compound 2] | 5 to 10 µM | –
Cc1nc(N[C@@H]2CC[C@H](N3Cc4ccccc4CC3=O)C2)nc2ccc(-c3cccc4c3OCCO4)cc12 [Compound 3] | 5 to 10 µM | –
Cc1nc(N[C@@H]2CC[C@H](NC(=O)OC(C)(C)C)C2)nc2ccc(-c3ccnc4c3OCCO4)cc12 [Compound 4] | < 5 µM | –
Cc1nc(N[C@@H]2CC[C@H](NC(=O)c3ccc(Cl)cc3)C2)nc2ccc(-c3cccc4c3CCCC4)cc12 [Compound 5] | < 5 µM | –
Cc1nc(N[C@@H]2CC[C@H](NC(=O)c3ccccc3Cl)C2)nc2ccc(-c3ccnc4c3OCCO4)cc12 [Compound 6] | < 5 µM | –
Cc1nc(N[C@@H]2CC[C@H](N3Cc4ccccc4CC3=O)C2)nc2ccc(-c3ccnc4c3OCCO4)cc12 [Compound 7] | 5 to 10 µM | –
Cc1nc(N[C@@H]2CC[C@H](NC(=O)c3ccc(Cl)cc3)C2)nc2ccc(-c3ccnc4c3OCCO4)cc12 [Compound 8] | < 5 µM | –
Cc1nccc(-c2ccc3nc(N[C@@H]4CC[C@H](NC(=O)c5ccc(Cl)cc5)C4)nc(C)c3c2)c1Cl [Compound 9] | < 5 µM | –
Cc1nc(N[C@@H]2CC[C@H](N)C2)nc2ccc(-c3ccnc4c3OCCO4)cc12 [Compound 10] | 5 to 10 µM | –
Cc1nc(N[C@@H]2CC[C@@H](NC(=O)OC(C)(C)C)C2)nc2ccc(-c3ccnc4c3OCCO4)cc12 [Compound 11] | < 5 µM | –
Cc1ccc2ccc(F)c(-c3ccc4nc(N[C@@H]5CC[C@@H](NC(=O)OC(C)(C)C)C5)nc(C)c4c3)c2n1 [Compound 12] | 5 to 10 µM | –
Cc1nn(C)c(C(=O)N[C@H]2CC[C@@H](Nc3nc(C)c4cc(-c5ccnc6c5OCCO6)ccc4n3)C2)c1Cl [Compound 13] | < 5 µM | –
Cc1ncccc1C(=O)N[C@H]1CC[C@@H](Nc2nc(C)c3cc(-c4ccnc5c4OCCO5)ccc3n2)C1 [Compound 14] | < 5 µM | –
Cc1ccc2ccc(F)c(-c3ccc4nc(N[C@@H]5CC[C@H](NC(=O)OC(C)(C)C)C5)nc(C)c4c3)c2n1 [Compound 15] | 5 to 10 µM | –
Cc1nccc(-c2ccc3nc(N[C@@H]4CC[C@H](NC(=O)OC(C)(C)C)C4)nc(C)c3c2)c1Cl [Compound 16] | 5 to 10 µM | –
Cc1nc(N[C@@H]2CC[C@H](NC(=O)OC(C)(C)C)C2)nc2ccc(-c3ccnc4c3OCCO4)cc12 [Compound 17] | – | IC50: < 5 µM
Cc1nc(N[C@H]2CC[C@@H](NC(=O)OC(C)(C)C)C2)nc2ccc(-c3ccnc4c3OCCO4)cc12 [Compound 18] | < 5 µM | –
Cc1nc(N[C@@H]2CC[C@H](NC(=O)OC(C)(C)C)C2)nc2ccc(-c3ccnc4c3OCCO4)cc12 [Compound 19] | – | IC50: < 5 µM
COc1nccc(-c2ccc3nc(N[C@@H]4CC[C@H](NC(=O)OC(C)(C)C)C4)nc(C)c3c2)c1Cl [Compound 21] | 5 to 10 µM | –
COc1c(Cl)cccc1-c1ccc2nc(N[C@@H]3CC[C@H](NC(=O)OC(C)(C)C)C3)nc(C)c2c1 [Compound 22] | 5 to 10 µM | –
Cc1nc(N[C@@H]2CC[C@H](N3CCNC3=O)C2)nc2ccc(-c3ccnc4c3OCCO4)cc12 [Compound 26] | 5 to 10 µM | –
Cc1nc(N[C@@H]2CC[C@H](NC(=O)C(C)(C)C)C2)nc2ccc(-c3ccnc4c3OCCO4)cc12 [Compound 27] | < 5 µM | –

Compound | IC50 (Homo sapiens, SW-620) | also measured
Cc1ccc2ccc(F)c(-c3ccc4nc(N[C@H]5CC[C@@H](NC(=O)OC(C)(C)C)C5)nc(C)c4c3)c2n1 [Compound 28] | 5 to 10 µM | –
Cc1nc(N[C@@H]2CC[C@H](NC(=O)Cn3cccn3)C2)nc2ccc(-c3cccc4c3CCCC4)cc12 [Compound 29] | < 5 µM | –
Cc1ccc2ccc(F)c(-c3ccc4nc(N[C@@H]5CC[C@H](NC(=O)OC(C)(C)C)C5)nc(C)c4c3)c2n1 [Compound 30] | – | IC50: 5 to 10 µM
COc1ncccc1-c1ccc2nc(N[C@@H]3CC[C@H](NC(=O)OC(C)(C)C)C3)nc(C)c2c1 [Compound 31] | 5 to 10 µM | –
Cc1nc(N[C@@H]2CC[C@H](NS(=O)(=O)c3ccc(C#N)cc3)C2)nc2ccc(-c3ccnc4c3OCCO4)cc12 [Compound 32] | < 5 µM | –
Cc1nc(N[C@@H]2CC[C@H](NC(=O)O[C@H]3CCN(C)C3)C2)nc2ccc(-c3ccnc4c3OCCO4)cc12 [Compound 33] | < 5 µM | –
Cc1nc(N[C@@H]2CC[C@H](NC(=O)OCc3nccn3C)C2)nc2ccc(-c3ccnc4c3OCCO4)cc12 [Compound 34] | < 5 µM | –
Cc1nc(N[C@@H]2CC[C@H](NC(=O)OCc3ncco3)C2)nc2ccc(-c3ccnc4c3OCCO4)cc12 [Compound 35] | < 5 µM | –
Cc1nc(N[C@@H]2CC[C@H](NC(=O)OCc3ccon3)C2)nc2ccc(-c3ccnc4c3OCCO4)cc12 [Compound 36] | < 5 µM | –
Cc1nc(N[C@@H]2CC[C@H](NC(=O)OC[C@H]3CCCN3C)C2)nc2ccc(-c3ccnc4c3OCCO4)cc12 [Compound 37] | < 5 µM | –
Cc1nc(N[C@@H]2CC[C@H](NC(=O)OC[C@@H]3CCCN3C)C2)nc2ccc(-c3ccnc4c3OCCO4)cc12 [Compound 38] | < 5 µM | –
Cc1nc(N[C@@H]2CC[C@H](NC(=O)O[C@@H]3CCN(C)C3)C2)nc2ccc(-c3ccnc4c3OCCO4)cc12 [Compound 39] | < 5 µM | –
Cc1nc(N[C@@H]2CC[C@H](NC(=O)OCc3ccno3)C2)nc2ccc(-c3ccnc4c3OCCO4)cc12 [Compound 40] | < 5 µM | –
Cc1cc(COC(=O)N[C@H]2CC[C@@H](Nc3nc(C)c4cc(-c5ccnc6c5OCCO6)ccc4n3)C2)on1 [Compound 41] | < 5 µM | –
C=CC(=O)N[C@H]1CC[C@@H](Nc2nc(C)c3cc(-c4ccnc5c4OCCO5)ccc3n2)C1 [Compound 42] | < 5 µM | –
Cc1nc(N[C@@H]2CC[C@H](NC(=O)OC(C)(C)C)C2)nc2ccc(-c3ccnc4c3OCCO4)c(F)c12 [Compound 43] | < 5 µM | –
Cc1nc(N[C@@H]2CC[C@H](NC(=O)OC(C)(C)C)C2)nc2ccc(-c3c(Cl)cnc4c3OCCO4)cc12 [Compound 44] | < 5 µM | –
Cc1nc(N[C@@H]2CC[C@H](NC(=O)OC(C)(C)C)C2)nc2ccc(-c3cc[n+]([O-])c4c3OCCO4)cc12 [Compound 45] | < 5 µM | –
Cc1nc(N[C@@H]2CC[C@H](NC(=O)OC(C)(C)C)C2)[n+]([O-])c2ccc(-c3ccnc4c3OCCO4)cc12 [Compound 46] | < 5 µM | –
Cc1nc(N[C@@H]2CC[C@H](NC(=O)c3nnn(C(C)(C)C)n3)C2)nc2ccc(-c3ccnc4c3OCCO4)cc12 [Compound 47] | < 5 µM | –
Cc1nc(N[C@@H]2CC[C@H](NC(=O)c3nnn(C(C)(C)C)n3)C2)nc2ccc(-c3ccnc4c3OCCO4)c(F)c12 [Compound 48] | < 5 µM | –
Cc1nc(N[C@H]2CCN(Cc3ccc(Cl)cc3)C2)nc2ccc(-c3cccc4c3CCCC4)cc12 [Compound 91] | – | IC50 (Homo sapiens, SW-620, Table 2): < 5 µM
Cc1nc(N[C@@H]2CCN(Cc3ccc(Cl)cc3)C2)nc2ccc(-c3cccc4c3CCCC4)cc12 [Compound 92] | – | IC50 (Homo sapiens, SW-620, Table 2): 5 to 10 µM
